The text below walks through data of US12378234B2, “Crystalline polymorphs of a 1-thiazol-2-yl-pyrazole-5-carboxylic acid derivative” (Bantam Pharmaceutical, LLC, priority 2019, dated 2025).

Holding throughout (format): physicochemical
The nature of data set [1]: Form stability on drying, checked by XRPD. The note with it: for form stability upon drying under ambient condition (XRPD): solids isolated from slurry; for change to the polymorph during drying (XRPD): wet solids vacuum-dried at 50° C. for 2 hours. As to the method:
Crystalline polymorph Form 1 (20 mg) was suspended in 0.2-0.9 mL of methyl tert-butyl ether (MTBE). The resulting slurry was stirred at room temperature for 4 days, after which the remaining solids were isolated and subjected to XRPD.
Crystalline polymorph Form 1 (20 mg) was suspended in 0.2-0.9 mL of tetrahydrofurane:H2O (1:9 v:v). The resulting slurry was stirred at room temperature for 4 days, after which the remaining solids were isolated and subjected to XRPD.
A solution of crystalline polymorph Form 1 (20 mg in 0.3 mL) was mixed with 0.3 mL a solution of KOH in ethyl acetate (1:1 molar ratio of KOH:Form 1), and then stirred for 2 to 5 days at room temperature. The solids were isolated and subjected to XRPD. The wet solids were also vacuum-dried at 50° C. for 2 hours, and then subjected to XRPD. […] This crystalline polymorph was also characterized by TGA, DSC, and PLM. […] Based on the results, Form 9 was considered to be a hydrate or a solvate.
X-Ray Powder Diffraction was obtained by standard techniques using Panalytical X'Pert3 Powder XRPD on a Si zero-background holder operating with a Cu Kα radiation source at 45 kV, 40 mA (Kα1 (Å): 1.540598, Kα2 (Å): 1.544426, Kα2/Kα1 intensity ratio: 0.50). The 2θ position was calibrated against Panalytical Si reference standard disc. The scanning parameters ranged from 3 to 40° 2θ (±0.0131°) and a continuous scan at a rate of about 0.04° 2θ/minute.

Data set [2] in a line: Slurry conversion (competitive) experiments for thermodynamic stability relationship. As to conditions: for pH of solution: 2.5 mg in 1 mL of 4% dichloromethane. As to the method: To determine the thermodynamic stability relationship between Form 1 and Form 5, slurry conversion experiments were conducted. Specifically, Form 1 sample was added to 1.0 mL H2O:acetone (9:1 v:v) or 0.8 mL of H2O:ethanol (3:1 v:v) at room temperature. After equilibrium for 1 hr, the suspensions were filtered to obtain a saturated solution Form 1. To each saturated solution of Form 1:Form 5 (1:1) was added. After stirring at room temperature for 2 or 3 days, the solids were isolated for XRPD analysis.
To determine the thermodynamic stability relationship between Form 11 and Form 12, slurry conversion experiments were conducted. Specifically, Form 12 (2.5 mg) was added to 1.0 mL of 4% dichloromethane at room temperature. After equilibrium for 1 hour, the suspensions were filtered to obtain a saturated solution Form 12. To the saturated solution of Form 11:Form 12 (1:1) was added. After stirring at room temperature for 30 minutes, the solids were isolated for XRPD analysis. […] The pH of Form 11 solution (2.5 mg in 1 mL of 4% dichloromethane) and Form 12 solution (2.5 mg in 1 mL of 4% dichloromethane) was measured to be 8.25 and 7.98, respectively.

Data set [3] in a line: Solubility of crystalline polymorph in biologically relevant media (water, SGF, FaSSIF, FeSSIF), HPLC of supernatant, pH, XRPD of remaining solids. As to conditions: for solubility at 1 h / solubility at 4 h / solubility at 24 h: thermodynamic from solid, 37° C.; for pH: solubility test. As to the method:
The solubility of crystalline polymorph Form 1 was tested in biologically relevant media: water, simulated gastric fluid (SGF), fasted state simulated intestinal fluid (FaSSIF) and fed state simulated intestinal fluid (FeSSIF). For example, the crystalline polymorph was suspended in the solvent with stirring at 400 rpm at 37° C. for 1 h, 4 h and 24 h followed by filtration. The supernatant concentration was measured by HPLC (Mobile phase A: 0.1% NH3 in H2O, Mobile phase B: acetonitrile; flow rate: 0.8 mL/min; injection volume: 5 μL). The remaining solids were tested by XRPD.
The solubility of crystalline polymorph Form 11 was tested in biologically relevant media: water, SGF, FaSSIF, and FeSSIF. For example, the crystalline polymorph was suspended in the solvent with stirring at 400 rpm at 37° C. for 1 h, 4 h and 24 h followed by filtration. The supernatant was measured by HPLC for concentration and the remaining solids were tested by XRPD.

Take `Cc1nn(-c2nc(C3=CCC(C(F)(F)F)CC3)c(SC(C)C)s2)c(C(=O)O)c1-c1cccc(F)c1` (centres unmarked) [Form 2, 4-(3-fluorophenyl)-1-(5-(isopropylthio)-4-(4-(trifluoromethyl)cyclohex-1-en-1-yl)thiazol-2-yl)-3-methyl-1H-pyrazole-5-carboxylic acid]: the “form stability upon drying under ambient condition (XRPD)” value in data set [1] was “metastable and partially converted to Form 1”.
For the compound `Cc1nn(-c2nc(C3=CCC(C(F)(F)F)CC3)c(SC(C)C)s2)c(C(=O)O)c1-c1cccc(F)c1` (centres unmarked) [Form 8, 4-(3-fluorophenyl)-1-(5-(isopropylthio)-4-(4-(trifluoromethyl)cyclohex-1-en-1-yl)thiazol-2-yl)-3-methyl-1H-pyrazole-5-carboxylic acid], the “form stability upon drying under ambient condition (XRPD)” value in data set [1] is “metastable and partially converted to Form 1”.
As for `Cc1nn(-c2nc(C3=CCC(C(F)(F)F)CC3)c(SC(C)C)s2)c(C(=O)[O-])c1-c1cccc(F)c1.[K+]` (centres unmarked) [Form 9, potassium 4-(3-fluorophenyl)-1-(5-(isopropylthio)-4-(4-(trifluoromethyl)cyclohex-1-en-1-yl)thiazol-2-yl)-3-methyl-1H-pyrazole-5-carboxylate], the “change to the polymorph during drying (XRPD)” value (from here on “change … (XRPD)”) in data set [1] is “no change to the polymorph was observed”.
Take `Cc1nn(-c2nc(C3=CCC(C(F)(F)F)CC3)c(SC(C)C)s2)c(C(=O)[O-])c1-c1cccc(F)c1.[K+]` (centres unmarked) [Form 10, potassium 4-(3-fluorophenyl)-1-(5-(isopropylthio)-4-(4-(trifluoromethyl)cyclohex-1-en-1-yl)thiazol-2-yl)-3-methyl-1H-pyrazole-5-carboxylate]: in data set [1], the “change … (XRPD)” value is on record as “no change to the polymorph was observed”.
As usually defined, the solubility is the dissolved amount per volume that the medium holds. High values mean a readily soluble substance, low ones a poorly soluble substance. In data set [2], `Cc1nn(-c2nc(C3=CCC(C(F)(F)F)CC3)c(SC(C)C)s2)c(C(=O)[O-])c1-c1cccc(F)c1.[Na+]` (centres unmarked) [Form 11, sodium 4-(3-fluorophenyl)-1-(5-(isopropylthio)-4-(4-(trifluoromethyl)cyclohex-1-en-1-yl)thiazol-2-yl)-3-methyl-1H-pyrazole-5-carboxylate] had a pH of solution of 8.25. Also, the “thermodynamic stability relationship between Form 11 and Form 12” value in data set [2] (slurry of Form 11:Form 12 (1:1) in 4% dichloromethane, room temperature, 30 minutes) is listed as “more thermodynamically stable than Form 12”. Also, the “Form change by XRPD of remaining solids” value is “no form change was observed” in data set [3] (after solubility test in FaSSIF), “converted to Form 1” in data set [3] (after solubility test in FeSSIF), “converted to Form 1” in data set [3] (after solubility test in SGF) and “no form change was observed” in data set [3] (after solubility test in water). For the same compound, the solubility at 1 h is 100 µg/mL in data set [3] (fasted state simulated intestinal fluid (FaSSIF), FaSSIF, 1 hr); 200 µg/mL in data set [3] (fed state simulated intestinal fluid (FeSSIF), FeSSIF, 1 hr); 40 µg/mL in data set [3] (simulated gastric fluid (SGF), simulated gastric fluid, SGF, 1 hr); 1400 µg/mL in data set [3] (water, H2O, 1 hr). Moreover, the solubility at 4 h in data set [3] (fasted state simulated intestinal fluid (FaSSIF), FaSSIF, 4 hr) was 100 µg/mL; in data set [3] (fed state simulated intestinal fluid (FeSSIF), FeSSIF, 4 hr), 300 µg/mL; in data set [3] (simulated gastric fluid (SGF), simulated gastric fluid, SGF, 4 hr), 100 µg/mL; in data set [3] (water, H2O, 4 hr), 1300 µg/mL. The solubility at 24 h was 200 µg/mL in data set [3] (fasted state simulated intestinal fluid (FaSSIF), FaSSIF, 24 hr); 400 µg/mL in data set [3] (fed state simulated intestinal fluid (FeSSIF), FeSSIF, 24 hr); 300 µg/mL in data set [3] (simulated gastric fluid (SGF), simulated gastric fluid, SGF, 24 hr); 1200 µg/mL in data set [3] (water, H2O, 24 hr). Further, the pH was determined as 6.48 in data set [3] (FaSSIF, 1 hr); 6.45 in data set [3] (FaSSIF, 4 hr); 6.56 in data set [3] (FaSSIF, 24 hr); 5.19 in data set [3] (FeSSIF, 1 hr); 5.28 in data set [3] (FeSSIF, 4 hr); 5.32 in data set [3] (FeSSIF, 24 hr). For the same compound, the pH in data set [3] (H2O, 1 hr) is 9.67; in data set [3] (H2O, 4 hr) it was 9.31; in data set [3] (H2O, 24 hr), 9.17; in data set [3] (SGF, 1 hr) it was 2.12; in data set [3] (SGF, 4 hr), 2.55; in data set [3] (SGF, 24 hr), 6.81. For the same compound, in data set [1], the “change … (XRPD)” value is reported as “no change to the polymorph was observed”.
On to `Cc1nn(-c2nc(C3=CCC(C(F)(F)F)CC3)c(SC(C)C)s2)c(C(=O)[O-])c1-c1cccc(F)c1.[Na+]` (centres unmarked) [Form 12, sodium 4-(3-fluorophenyl)-1-(5-(isopropylthio)-4-(4-(trifluoromethyl)cyclohex-1-en-1-yl)thiazol-2-yl)-3-methyl-1H-pyrazole-5-carboxylate], for which, in data set [2], the pH of solution was 7.98. The “change … (XRPD)” value in data set [1] is “no change to the polymorph was observed”.
For `Cc1nn(-c2nc(C3=CCC(C(F)(F)F)CC3)c(SC(C)C)s2)c(C(=O)O)c1-c1cccc(F)c1.N=C(N)NCCCC(N)C(=O)O` [Form 13, L-arginine 4-(3-fluorophenyl)-1-(5-(isopropylthio)-4-(4-(trifluoromethyl)cyclohex-1-en-1-yl)thiazol-2-yl)-3-methyl-1H-pyrazole-5-carboxylate], the “change … (XRPD)” value in data set [1] is on record as “no change to the polymorph was observed”.
Still for that read-out and setting: under `Cc1nn(-c2nc(C3=CCC(C(F)(F)F)CC3)c(SC(C)C)s2)c(C(=O)O)c1-c1cccc(F)c1.NC(N)=O` (centres unmarked) [Form 15, urea 4-(3-fluorophenyl)-1-(5-(isopropylthio)-4-(4-(trifluoromethyl)cyclohex-1-en-1-yl)thiazol-2-yl)-3-methyl-1H-pyrazole-5-carboxylate] stands “no change to the polymorph was observed”; under `Cc1nn(-c2nc(C3=CCC(C(F)(F)F)CC3)c(SC(C)C)s2)c(C(=O)O)c1-c1cccc(F)c1.O=C(O)C1CCCN1` [Form 16, L-proline 4-(3-fluorophenyl)-1-(5-(isopropylthio)-4-(4-(trifluoromethyl)cyclohex-1-en-1-yl)thiazol-2-yl)-3-methyl-1H-pyrazole-5-carboxylate], “no change to the polymorph was observed”; under “magnesium 4-(3-fluorophenyl)-1-(5-(isopropylthio)-4-(4-(trifluoromethyl)cyclohex-1-en-1-yl)thiazol-2-yl)-3-methyl-1H-pyrazole-5-carboxylate [Form 14]”, “no change to the polymorph was observed”.
